These results are taken from paper PMC5515887, “Ruthenium-conjugated chrysin analogues modulate platelet activity, thrombus formation and haemostasis with enhanced efficacy” (Scientific Reports, 2017).

pKd: −log10 of the molar value. Where two headings read alike, the source gives them in different places.

Data set [1] concerns dense granule secretion in washed platelets. Description: ATP release by lumi-aggregometry (marker for dense granule secretion). The class given is cell-based, human. As to conditions: 100 μM compound, CRP-XL 0.5 μg/mL. The procedure:
Figure 5 Chrysin and its derivatives affect granule secretion in platelets. […] The level of P-selectin (as a marker for α-granule secretion) was quantified using PECy5-labelled anti-human P-selectin antibodies by flow cytometry. […] R represents ‘resting’ platelets. […] Platelets were then activated with 0.5 μg/mL CRP-XL and the ATP release was monitored for 5 minutes by lumi-aggregometry. The traces shown are representative of three separate experiments.
The preparation of human platelets and aggregation assays were performed using standard protocols as described by us previously, [16]. Briefly, human blood was collected in 3.2% citrate containing vacutainers via venepuncture from healthy, aspirin-free individuals with informed consent in accordance with the methods approved by the University of Reading Research Ethics Committee. All methods were performed in accordance with the relevant institutional and national guidelines and regulations. Blood samples were centrifuged at 102 g for 20 minutes at room temperature to separate the PRP, which was used in aggregation, flow cytometry, static platelet adhesion, calcium mobilisation and clot retraction assays. […] Dense granule secretion in platelets was determined by measuring the ATP release using the luciferin-luciferase reagent by lumi-aggregometry (Chrono-Log, USA). […]

Data set [2] concerns platelet adhesion (integrins αIIbβ3 and α2β1). Briefly: Static platelet adhesion assay on collagen, CRP-XL and fibrinogen. The following applies: PRP; static conditions; in the presence and absence of integrilin (4 µM). It is filed as cell-based, human. The procedure:
Integrins αIIbβ3 and α2β1 play critical roles in platelet adhesion to different matrix proteins such as fibrinogen and collagen, respectively.
Micro titre plates (96 well) were coated with 1 μg/100 μL/well of fibrinogen, collagen or CRP-XL followed by incubation at 4 °C for overnight. Following the removal of unbound proteins/peptide, the wells were blocked with 1% bovine serum albumin in modified Tyrodes-HEPES buffer for 1 hour. The plates were then washed three times with modified Tyrode’s-HEPES buffer prior to adding human PRP (1 × 10^8 cells/mL, 50 μL/well) and incubated at room temperature for 1 hour. Non-adhered platelets were discarded and then the wells were washed with modified Tyrodes-HEPES buffer. Citrate lysis buffer (100 μL/well) was added and incubated for 1 hour at room temperature. Finally, 100 μL of 2 M NaOH was added to all the wells to stop the reaction and the absorbance was measured at 405 nm using a Fluostar Optima spectrofluorimeter (BMG Labtech, Germany). Experiments were performed both in the absence and presence of integrilin (4 μM) (an antagonist for integrin αIIbβ3).

The next data set deals with AKT. Description: Immunoblot of AKT phosphorylation at S473 in CRP-XL activated platelets. As to conditions: washed platelets, CRP-XL 0.5 μg/mL. It is filed as cell-based, human. The text has this:
(§1) The calcium traces (Ai and Bi) shown are representative of three separate experiments. […] The platelets were lysed and used for immunoblot analysis to detect the level of AKT phosphorylation at residue S473, FAK phosphorylation at Y397 and phosphorylation of Src at Y527. The level of 14-3-3ζ protein was detected as a loading control. The cropped images of the blots shown here are representative of three separate experiments. The uncropped full length blots are presented in Supplementary Information (Figure S8).
(§2) Calcium mobilisation is associated with phosphoinositide 3-kinase (PI3K) signalling in platelets. Protein kinase B (AKT) is a downstream effector of PI3K and a key marker for the PI3K/AKT signalling pathway. […]
(§3) The preparation of human platelets and aggregation assays were performed using standard protocols as described by us previously, [16]. Briefly, human blood was collected in 3.2% citrate containing vacutainers via venepuncture from healthy, aspirin-free individuals with informed consent in accordance with the methods approved by the University of Reading Research Ethics Committee. […] Dense granule secretion in platelets was determined by measuring the ATP release using the luciferin-luciferase reagent by lumi-aggregometry (Chrono-Log, USA). […]

In a further data set the test system is FAK. Briefly: Immunoblot of FAK phosphorylation at Y397 in CRP-XL activated platelets. The class given is cell-based, human. As to conditions: washed platelets, CRP-XL 0.5 μg/mL.
Description: as §1, §2, §3

The next data set deals with human whole blood. Description: In vitro thrombus formation under arterial flow conditions on collagen-coated Vena8 biochips. As to conditions: 100 μM compound. It is filed as cell-based. The procedure: Platelet activation under arterial flow conditions culminates in the formation of thrombus at the damaged blood vessels and thereby reducing the blood supply to target tissues.
Thrombus formation was monitored by capturing Z-stack fluorescent images at every 30 seconds over 10 minutes by fluorescence microscopy. The images shown (A) at different time points and traces (B) are representative of three separate experiments. […] Data represent ± S.D. (n = 8 mice in each group).
Z-stack images of thrombi were obtained every 30 seconds for up to 10 minutes using a Nikon eclipse (TE2000-U) microscope (Nikon Instruments, UK). The median fluorescence intensity and thrombus volume were calculated by analysing the images using ImageJ.

Data set [3] deals with T1, human serum albumin (HSA) (Homo sapiens, UniProt P02768).
T1 construct: purchased Sovicell, Germany
T1 sequence (P02768 25-609): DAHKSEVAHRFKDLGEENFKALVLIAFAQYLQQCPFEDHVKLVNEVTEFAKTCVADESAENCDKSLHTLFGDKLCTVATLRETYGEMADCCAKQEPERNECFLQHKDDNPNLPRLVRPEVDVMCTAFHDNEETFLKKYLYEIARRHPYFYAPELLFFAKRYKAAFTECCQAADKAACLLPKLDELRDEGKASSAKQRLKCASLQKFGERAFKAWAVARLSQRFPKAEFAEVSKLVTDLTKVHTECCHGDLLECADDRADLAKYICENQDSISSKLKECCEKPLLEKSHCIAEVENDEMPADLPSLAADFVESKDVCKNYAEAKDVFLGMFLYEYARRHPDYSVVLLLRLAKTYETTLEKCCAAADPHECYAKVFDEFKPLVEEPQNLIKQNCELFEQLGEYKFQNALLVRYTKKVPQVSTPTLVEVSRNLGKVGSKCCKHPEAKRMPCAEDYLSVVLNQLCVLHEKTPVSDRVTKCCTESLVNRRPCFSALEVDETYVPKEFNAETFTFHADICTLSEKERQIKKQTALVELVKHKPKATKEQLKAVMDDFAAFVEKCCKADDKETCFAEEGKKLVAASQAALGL
Description: HSA binding assay (TRANSIL XL HSA binding kit). As to the method:
HSA binding assay was performed using TRANSIL^XL binding kit (Sovicell, Germany) according to the manufacturer’s protocol. […] The plate was then incubated on a plate shaker at 100 g for 12 minutes followed by centrifugation for 10 minutes at 750 g.

For the compound `O=c1cc(-c2ccccc2)oc2cc(O)cc(O)c12` [chrysin], the inhibition at 100 µM was 100% in data set [1] (Homo sapiens, Platelet); ~50% in the data set on human whole blood (10 min, 20 dynes/cm^2, read-out: inhibition of thrombus growth and volume). In data set [2], the “effect on platelet adhesion to collagen, CRP-XL or fibrinogen” value is on record as “did not affect platelet adhesion”. For the same compound, the “effect on AKT phosphorylation at S473” value in the data set with AKT was “inhibited their phosphorylation in a concentration-dependent manner”. The “effect on FAK phosphorylation at Y397” value in the data set on FAK is listed as “inhibited their phosphorylation in a concentration-dependent manner”. The compound further showed a pKd in data set [3] of 5.71. In addition, the fraction unbound at 12 min, 50 µM in data set [3] (human, plasma) was 0.003.

Regarding “chlorido [(5-oxo-κO)-7-hydroxy-(2-phenyl)-4H-chromen-4-thionato-κS] (η6-p-cymene)ruthenium(II) [Ru-thio-chrysin]”, in data set [1], the “inhibition of dense granule secretion (ATP release)” value is recorded as 100%. For the same compound, the “effect on platelet adhesion to collagen, CRP-XL or fibrinogen” value in data set [2] was “did not affect platelet adhesion”. Further, the “effect on AKT phosphorylation at S473” value in the data set on AKT is “inhibited their phosphorylation in a concentration-dependent manner”. The “effect on FAK phosphorylation at Y397” value with FAK is on record as “inhibited their phosphorylation in a concentration-dependent manner”. The “inhibition of thrombus growth and volume” value in the data set on human whole blood (20 dynes/cm^2, 10 minutes) was “approximately 75%”. In data set [3] (TRANSIL XL HSA binding kit), the “fraction bound to plasma (fb)” value is reported as < 29.6%. The pKd in data set [3] (TRANSIL XL HSA binding kit, 50 µM compound, read-out: binding affinity (Kd) to HSA) is 2.85.
